The values that follow come from patent publication US8410026B2, “Pyridazine fungicides” (Syngenta Crop Protection LLC, priority 2008, dated 2013).

For orientation: melting point means the temperature, or range, at which the solid turns liquid.

SMILES strings stand for the structures. Some results are limits rather than exact numbers.

For series [1], the system named is Magnaporthe qrisea (Pyricularia oryzae). The series is described as follows: whole plant or invertebrate. Type of series: in vivo. Conditions: read-out: inhibit fungal infestation.
For series [2], the system named is Pyrenophora teres (Helminthosporium teres). Put plainly: Pyrenophora teres (Helminthosporium teres) / barley / preventive (action against net blotch on barley). In kind it is in vivo. Conditions: preventive spray, barley plants cv. Regina, inoculated 2 days after application, assessed after 4 days incubation, read-out: inhibit fungal infestation. How it is done:
Pyrenophora teres (Helminthosporium teres)/Barley/Preventive (Action Against Net Blotch on Barley) 1-week-old barley plants cv. Regina are treated with the formulated test compound in a spray chamber. Two days after application barley plants are inoculated by spraying a spore suspension (2.6×10^4 conidia/ml) on the test plants. After an incubation period of 4 days at 20° C. and 95% r. h. the disease incidence is assessed.

In series [3] the test system is Uncinula necator (Erysiphe necator). Put plainly: Uncinula necator (Erysiphe necator) / grape / preventive (action against powdery mildew on grape). In kind it is in vivo. Conditions: preventive spray, grape seedlings cv. Gutedel, inoculated 1 day after application, assessed after 7 days incubation, read-out: inhibit fungal infestation. How it is done: Uncinula necator (Erysiphe necator)/Grape/Preventive (Action Against Powdery Mildew on Grape) 5 weeks old grape seedlings cv. Gutedel are treated with the formulated test compound in a spray chamber. One day after application grape plants are inoculated by shaking plants infected with grape powdery mildew above the test plants. After an incubation period of 7 days at 24° C./22° C. and 70% r. h. under a light regime of 14/10 h (light/dark) the disease incidence is assessed.

Series [4] deals with Puccinia recondite f. sp. tritici. The series is described as follows: Puccinia recondite f. sp. tritici / wheat / preventive (action against brown rust on wheat). Conditions: preventive spray, wheat plants cv. Arina, inoculated 1 day after application, assessed 11 days after inoculation, read-out: inhibit fungal infestation. In kind it is in vivo. How it is done: Puccinia recondite f. sp. tritici/Wheat/Preventive (Action Against Brown Rust on Wheat) 1 week old wheat plants cv. Arina are treated with the formulated test compound in a spray chamber. One day after application wheat plants are inoculated by spraying a spore suspension (1×105 uredospores/ml) on the test plants. After an incubation period of 1 day at 20° C. and 95% r. h. plants are kept for 10 days 20° C./18° C. (day/night) and 60% r. h. in a greenhouse. The disease incidence is assessed 11 days after inoculation.

Series [5] deals with Mycosphaerella graminicola (Septoria tritici). Put plainly: Mycosphaerella graminicola (Septoria tritici) / wheat / preventive (action against Septoria leaf spot on wheat). In kind it is in vivo. Conditions: Zymoseptoria tritici, preventive spray, wheat plants cv. Riband, inoculated 1 day after application, assessed 16-18 days after inoculation, read-out: inhibits fungal infestation. How it is done:
Mycosphaerella graminicola (Septoria tritici)/Wheat/Preventive (Action Against Septoria Leaf Spot on Wheat) 2 weeks old wheat plants cv. Riband are treated with the formulated test compound in a spray chamber. One day after application wheat plants are inoculated by spraying a spore suspension (10^6 conidia/ml) on the test plants. After an incubation period of 1 day at 22° C./21° C. and 95% r. h. plants are kept at 22° C./21° C. and 70% r.h. in a greenhouse. The disease incidence is assessed 16-18 days after inoculation.

Series [6] relates to Botryotinia fuckeliana (Botrytis cinerea). The series is described as follows: Botryotinia fuckeliana (Botrytis cinerea) / tomato / preventive (action against Botrytis on tomato). Type of series: in vivo. Conditions: preventive spray, tomato plants cv. Roter Gnom, inoculated 2 days after application, assessed after 3 days incubation, read-out: inhibit fungal infestation. On the procedure: Botryotinia fuckeliana (Botrytis cinerea)/Tomato/Preventive (Action Against Botrytis on Tomato) 4 weeks old tomato plants cv. Roter Gnom are treated with the formulated test compound in a spray chamber. Two days after application tomato plants are inoculated by spraying a spore suspension on the test plants. After an incubation period of 3 days at 20° C. and 95% r. h. in a greenhouse the disease incidence is assessed.

The test system of the next series is Alternaria solani. Put plainly: Alternaria solani / tomato / preventive (action against Alternaria on tomato). Conditions: preventive spray, tomato plants cv. Roter Gnom, inoculated 2 days after application, assessed after 4 days incubation, read-out: inhibit fungal infestation. Type of series: in vivo. On the procedure:
Alternaria solani/Tomato/Preventive (Action Against Alternaria on Tomato) 4 weeks old tomato plants cv. Roter Gnom are treated with the formulated test compound in a spray chamber. Two days after application tomato plants are inoculated by spraying a spore suspension on the test plants. After an incubation period of 4 days at 22° C./18° C. and 95% r. h. in a greenhouse the disease incidence is assessed.

For the molecule `Cc1nnc(Cl)c(-c2c(F)cccc2Cl)c1-c1ccc(Cl)nc1` [I.a.02, 3-chloro-4-(2-chloro-6-fluoro-phenyl)-5-(6-chloro-pyridin-3-yl)-6-methyl-pyridazine], the inhibition at 200 ppm in series [1], in series [2], in series [3], in series [4], in series [5] and in series [6] was ≥ 80% throughout. In addition, the inhibition at 200 ppm with Alternaria solani was ≥ 80%.

`COc1nnc(C)c(-c2ccc(Cl)nc2)c1-c1c(F)cc(F)cc1F` [I.a.12, 4-(6-chloro-pyridin-3-yl)-6-methoxy-3-methyl-5-(2,4,6-trifluoro-phenyl)-pyridazine] gave a melting point of 123 to 124 °C. The inhibition at 200 ppm in series [2] is ≥ 80%. In series [3], the inhibition at 200 ppm was ≥ 80%. Also, the inhibition at 200 ppm in series [4] is ≥ 80%. In addition, the inhibition at 200 ppm in series [6] was ≥ 80%. For the same molecule, the inhibition at 200 ppm in the series with Alternaria solani is ≥ 80%.

Regarding `CCc1nnc(Cl)c(-c2c(F)cc(F)cc2F)c1-c1ccc(Cl)nc1` [I.a.14, 3-chloro-5-(6-chloro-pyridin-3-yl)-6-ethyl-4-(2,4,6-trifluoro-phenyl)-pyridazine], the melting point lay within 125 to 126 °C. Besides, the inhibition at 200 ppm in series [1] was ≥ 80%. Also, in series [2], the inhibition at 200 ppm is ≥ 80%. Besides, in series [3], the inhibition at 200 ppm was ≥ 80%. In series [4], the inhibition at 200 ppm was ≥ 80%. Further, the inhibition at 200 ppm in series [5] was ≥ 80%. In addition, in the series with Alternaria solani, the inhibition at 200 ppm was ≥ 80%.

In turn, `CC(C)c1nnc(Cl)c(-c2c(F)cc(F)cc2F)c1-c1ccc(Cl)nc1` [I.a.17, 3-chloro-5-(6-chloro-pyridin-3-yl)-6-isopropyl-4-(2,4,6-trifluoro-phenyl)-pyridazine] gave a melting point of 146 to 149 °C.

The molecule `COc1cc(F)c(-c2c(Cl)nnc(C)c2-c2ccc(Cl)nc2)c(F)c1` [I.a.20, 3-chloro-5-(6-chloro-pyridin-3-yl)-4-(2,6-difluoro-4-methoxy-phenyl)-6-methyl-pyridazine] came in with a melting point of 148 to 149 °C. Moreover, in series [1], the inhibition at 200 ppm is ≥ 80%. Besides, in series [2], the inhibition at 200 ppm is ≥ 80%. Also, in series [4], the inhibition at 200 ppm is ≥ 80%. For the same molecule, the inhibition at 200 ppm in series [5] was ≥ 80%. Moreover, in the series on Alternaria solani, the inhibition at 200 ppm was ≥ 80%.

The molecule `Cc1nnc(Cl)c(-c2c(F)cc(F)cc2F)c1-c1cnc(Cl)c(Cl)c1` [I.g.11, 3-chloro-5-(5,6-dichloro-pyridin-3-yl)-6-methyl-4-(2,4,6-trifluoro-phenyl)-pyridazine] showed a melting point of 185 to 188 °C. Moreover, in series [1], the inhibition at 200 ppm is ≥ 80%. For the same molecule, the inhibition at 200 ppm in series [3] was ≥ 80%.
